# Assay results from publication PMC3467217, “A Potent Class of GPR40 Full Agonists Engages the EnteroInsular Axis to Promote Glucose Control in Rodents” (PLoS ONE, 2012).
# Experiments:
# GPR40 [1] = molecular target: T1, GPR40 (Homo sapiens, UniProt O14842); test: Aequorin Ca2+ flux assay in CHO cell line stably expressing GPR40; format: cell-based; details: CHO-GPR40 stable cell line; for Emax: compared to natural free fatty acid ligands, read-out: Emax (efficacy)
# T1 construct: expressed in transfected cells; host or cells: CHO cell line stably expressing GPR40 and aequorin
# Method: Since GPR40 agonists with greater intrinsic activity may have improved anti-diabetic properties, we focused our efforts to discover potent synthetic full agonists.
# (§1) GPR40 aequorin, plasmid titration, and inositol phosphate assays were performed as described. For aequorin assays, in addition to transient transfection of GPR40 into CHO cells, a CHO cell line stably expressing both GPR40 and aequorin was generated. GLUTag cells were obtained under a license from Dr. Daniel Drucker, University of Toronto. Competition binding experiments were performed using membranes prepared from A9_GPR40 cells. […] Competition binding assays were carried out in 20 mM Hepes pH 7.5, 5 mM MgCl2, 100 mM NaCl and 0.1% (w/v) free fatty acid BSA and bound radioligand was collected on 96-well GF/C filter plates.
# GPR40 [2] = molecular target: T1, GPR40; test: Inositol phosphate accumulation assay in A9 cells stably expressing GPR40 (A9_GPR40); format: cell-based; details: for agonist character: inositol phosphate accumulation, A9 cells stably expressing GPR40 (figure S1)
# Method: as §1
# (A) Structure of selected GPR40 agonists. (B) GPR40 agonists were tested in parallel in vitro in an inositol phosphate accumulation assay in A9 cells stably expressing GPR40. (TIF) Click here for additional data file.
# GPR40 [3] = molecular target: T1, GPR40; test: Competition binding with 3H-AM-1638 on A9_GPR40 membranes; details: unlabelled competitor
# Method: as §1
# GPR41 (FFAR3) = molecular target: T2, GPR41 (FFAR3) (Homo sapiens, UniProt O14843); test: GPR41 aequorin assay; format: cell-based; details: up to 10 µM
# T2 construct: expressed in transfected cells
# Excerpt: (§2) (A) GPR41 (FFAR3) aequorin assay. GPR41 was force coupled to the calcium signaling pathway by co-transfecting the cells with Gqmyri5. (B) GPR43 (FFAR2) aequorin assay. The short chain fatty acid propionate acts as a natural agonist ligand for GPR41 and GPR43. (C) GPR120 aequorin assay. The unsaturated fatty acids α-LNN and DHA act as natural agonist ligands for GPR120. (D) PPAR-gamma luciferase assay using the thiazolidinedione rosiglitazone as a positive control. […] (TIF) Click here for additional data file.
# GPR43 (FFAR2) = molecular target: T3, GPR43 (FFAR2) (Homo sapiens, UniProt O15552); test: GPR43 aequorin assay; format: cell-based; details: up to 10 µM
# T3 construct: expressed in transfected cells
# Excerpt: as §2
# GPR120 = molecular target: T4, GPR120 (Homo sapiens, UniProt Q5NUL3); test: GPR120 aequorin assay; format: cell-based; details: weak activity
# T4 construct: expressed in transfected cells
# Excerpt: as §2
# PPAR alpha = PPAR alpha (Homo sapiens, UniProt Q07869); test: PPAR-alpha luciferase reporter assay; format: cell-based; details: concentrations up to 10 µM
# PPAR delta = PPAR delta (Homo sapiens, UniProt Q03181); test: PPAR-delta luciferase reporter assay; format: cell-based; details: concentrations up to 10 µM
# PPAR gamma = PPAR gamma (Homo sapiens, UniProt P37231); test: PPAR-gamma luciferase assay; format: cell-based; details: concentrations up to 10 µM
# Excerpt: as §2
# mouse islets [4] = test: GSIS assay in mouse islets; format: cell-based; details: 16.7 mM glucose
# Method: (§3) Mouse islets were isolated and tested for stimulation of GSIS as described. Human islets were purchased from Prodo labs or were obtained from the National Institutes of Health and Juvenile Diabetes Research Foundation supported Islet Cell Resource Consortium (http://icr.coh.org). Islet inositol phosphate assays were performed on islets cells that had been dispersed with trypsin. 10,000 islet cells were plated/well of a 96-well plate and were loaded with ^3H-myo-inositol (0.5 µCi/well) in RPMI overnight prior to treatment. The next day, response to different stimuli was tested in HBSS containing 10 mM LiCl and 0.1% HSA (w/v) for 1 hour at 37°C. Accumulated ^3H-inositol phosphate was measured after capture to SPA beads. Islet perifusion experiments were performed on mouse islets loaded into a Brandel Suprafusion system. Twenty islets were size-matched and loaded per perifusion chamber. Islets were perifused in KRBH containing, sequentially, 3 mM glucose, then 3 mM glucose containing 10 µM drug, 16.7 mM glucose containing 10 µM drug and finally returned to 3 mM glucose containing 10 µM drug. Insulin was measured using an insulin ELISA kit (Alpco). Fetal rat intestinal cells were isolated from e19-day old fetuses of pregnant Sprague-Dawley rats. Briefly, fetal intestines were isolated and digested in HBSS buffer containing 0.5 mg/ml collagenase (Sigma), 0.5 mg/ml of hyaluronidase (Sigma) and 0.05 mg/ml of deoxyribonuclease I (Roche) for 30 minutes at 37°C. The digestion was quenched using HBSS containing 15% FBS. Fetal rat intestinal cells were washed and cultured overnight in DMEM containing 5% FBS in 96-well plates. To test for secretion of GLP-1 and GIP in response to treatments, we incubated cells for 1 hour with treatments in KRBH buffer containing 0.05% BSA (w/v). GLP-1 and GIP1 secreted into the media was measured using ELISA kits specific for GLP-1 (Linco) or GIP (Millipore).
# [5] = system: islets isolated from GPR40 knockout mice; test: GSIS assay with islets from GPR40 knock-out mice; format: cell-based, mouse
# Method: as §3
# human islet cells = test: Inositol phosphate assay with dispersed human islet cells; format: cell-based
# Method: as §3, with “Briefly, fetal intestines were isolated and digested in HBSS buffer containing 0.5 mg/ml collagenase (Sigma), 0.5 mg/ml of hyaluronidase (Sigma) and 0.05 mg/ml of deoxyribonuclease I (Roche) for 30 minutes at 37°C. The digestion was quenched using HBSS containing 15% FBS. Fetal rat intestinal cells were washed and cultured overnight in DMEM containing 5% FBS in 96-well plates. To test for secretion of GLP-1 and GIP in response to treatments, we incubated cells for 1 hour with treatments in KRBH buffer containing 0.05% BSA (w/v).” left out
# human islets = test: GSIS assay with human islets; format: cell-based; details: 12.5 mM glucose
# Method: as §3, with “Briefly, fetal intestines were isolated and digested in HBSS buffer containing 0.5 mg/ml collagenase (Sigma), 0.5 mg/ml of hyaluronidase (Sigma) and 0.05 mg/ml of deoxyribonuclease I (Roche) for 30 minutes at 37°C. The digestion was quenched using HBSS containing 15% FBS. Fetal rat intestinal cells were washed and cultured overnight in DMEM containing 5% FBS in 96-well plates. To test for secretion of GLP-1 and GIP in response to treatments, we incubated cells for 1 hour with treatments in KRBH buffer containing 0.05% BSA (w/v).” left out
# GLUTag cells = test: Inositol phosphate accumulation assay in GLUTag enteroendocrine L-cell line; format: cell-based, mouse
# Method: (§4) Increased GLP-1 and GIP would be expected to have additional benefits in type 2 diabetics. […] We tested for potential effects on incretin secretion in vitro by using cells isolated from fetal rat intestines.
# as §1
# mouse islets [6] = test: Mouse islet perifusion assay; format: cell-based; details: 10 µM compound
# Method: as §3
# [7] = system: fetal rat intestinal cells; test: GLP-1 secretion assay with fetal rat intestinal cells; format: cell-based; details: 1 hour
# Excerpt: as §4
# Mouse islets were isolated and tested for stimulation of GSIS as described. Human islets were purchased from Prodo labs or were obtained from the National Institutes of Health and Juvenile Diabetes Research Foundation supported Islet Cell Resource Consortium (http://icr.coh.org). Islet inositol phosphate assays were performed on islets cells that had been dispersed with trypsin. 10,000 islet cells were plated/well of a 96-well plate and were loaded with ^3H-myo-inositol (0.5 µCi/well) in RPMI overnight prior to treatment. The next day, response to different stimuli was tested in HBSS containing 10 mM LiCl and 0.1% HSA (w/v) for 1 hour at 37°C. Accumulated ^3H-inositol phosphate was measured after capture to SPA beads. Islet perifusion experiments were performed on mouse islets loaded into a Brandel Suprafusion system. Twenty islets were size-matched and loaded per perifusion chamber. […] Insulin was measured using an insulin ELISA kit (Alpco). […] GLP-1 and GIP1 secreted into the media was measured using ELISA kits specific for GLP-1 (Linco) or GIP (Millipore).
# HF/STZ mice [8] = test: OGTT in high-fat fed, streptozotocin-treated (HF/STZ) type 2 diabetic mice; format: in vivo, mouse
# Method: (§5) All procedures on animals were approved by the Amgen San Francisco Institutional Animal Care and Use Committee (approved protocols #11–04 and #2007–00106). The Amgen San Francisco vivarium is an AAALAC accredited facility. Animals were housed under a 12-h light, 12-h dark cycle (lights-on 0600 h and lights-off 1800 h) and were allowed ad libidum access to chow and water. The HF/STZ mice were established as previously described. Briefly, C57BL/6j mice (Jackson labs) at 4 weeks of age were fed a high-fat diet (BioServ S1850, 35% fat) for 3-weeks and then injected with 95 mg/kg streptozotocin (Sigma) ip to induce beta cell dysfunction. The animals continued on the same high fat diet for 3–6 additional weeks. Animals were then randomized into treatment groups based on fasting blood glucose and insulin measures. NONcNZO10/LtJ (RCS10) male mice (Jackson labs) were used at 12-weeks of age and randomized for treatment based on fasting glucose levels. For OGTT experiments, drugs were formulated in 1% HPMC, 10% HPbCD, 1% Tween-80 and dosed via oral gavage. Glucose was administered at 2 g/kg 1-hour post drug dose by oral gavage.
# (§6) For all glucose tolerance tests, glucose and insulin measurements were taken from tail vein samples at various time-points. Blood glucose values were measured on an Accu-Chek glucometer (Roche Diagnostics), while insulin levels were determined using an ELISA (Alpco).
# [9] = Unbound plasma drug concentration in HF/STZ mice; format: in vivo; details: C57BL/6j, mouse, 100 mg/kg oral, 1-hour post drug administration, by MS, read-out: free drug level in plasma
# mouse GPR40 = mouse GPR40 (Mus musculus, UniProt Q76JU9); test: Mouse GPR40 inositol phosphate accumulation assay; format: cell-based
# Method: as §1
# HF/STZ mice [10] = test: Single oral dose without glucose challenge in HF/STZ mice: GLP-1, insulin, glucose, GIP; format: in vivo, mouse
# Method: The increase in insulin secretion by GPR40 agonists is due to direct stimulation of GPR40 receptors on pancreatic β-cells, but may also be derived from stimulation of the gut peptides GLP-1 and GIP, which subsequently act on the GLP-1 and GIP G protein-coupled receptors found on pancreatic β-cells. […] No glucose challenge was performed in order to isolate the effects of the compounds alone.
# as §5
# humans = details: cited from earlier work
# Zucker fatty rats = details: 21-day, qd dosing; cited from earlier work
# [11] = system: wild type and GPR40 knockout mice; test: OGTT and GLP-1 secretion in wild type and GPR40 null mice; format: in vivo, mouse; details: OGTT, single oral dose
# Method: as §5, §6
# T1 sequence (O14842 whole entry): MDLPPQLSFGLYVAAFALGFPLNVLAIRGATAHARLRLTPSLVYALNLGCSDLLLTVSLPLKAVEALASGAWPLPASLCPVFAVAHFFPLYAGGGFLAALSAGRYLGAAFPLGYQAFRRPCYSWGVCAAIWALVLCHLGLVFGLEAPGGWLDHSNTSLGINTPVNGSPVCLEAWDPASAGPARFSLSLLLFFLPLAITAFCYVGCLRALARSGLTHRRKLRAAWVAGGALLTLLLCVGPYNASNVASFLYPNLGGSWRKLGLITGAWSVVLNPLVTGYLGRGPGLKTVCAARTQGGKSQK
# Chain of mouse GPR40 (Q76JU9 whole entry): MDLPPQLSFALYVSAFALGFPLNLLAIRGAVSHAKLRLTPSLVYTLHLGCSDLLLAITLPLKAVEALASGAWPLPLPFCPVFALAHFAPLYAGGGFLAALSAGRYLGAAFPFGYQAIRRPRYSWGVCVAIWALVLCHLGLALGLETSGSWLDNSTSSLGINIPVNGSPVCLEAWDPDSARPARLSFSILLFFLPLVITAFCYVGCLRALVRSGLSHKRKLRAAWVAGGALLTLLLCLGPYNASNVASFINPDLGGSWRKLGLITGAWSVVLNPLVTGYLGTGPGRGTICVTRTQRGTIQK
# Chain of PPAR gamma (P37231 whole entry): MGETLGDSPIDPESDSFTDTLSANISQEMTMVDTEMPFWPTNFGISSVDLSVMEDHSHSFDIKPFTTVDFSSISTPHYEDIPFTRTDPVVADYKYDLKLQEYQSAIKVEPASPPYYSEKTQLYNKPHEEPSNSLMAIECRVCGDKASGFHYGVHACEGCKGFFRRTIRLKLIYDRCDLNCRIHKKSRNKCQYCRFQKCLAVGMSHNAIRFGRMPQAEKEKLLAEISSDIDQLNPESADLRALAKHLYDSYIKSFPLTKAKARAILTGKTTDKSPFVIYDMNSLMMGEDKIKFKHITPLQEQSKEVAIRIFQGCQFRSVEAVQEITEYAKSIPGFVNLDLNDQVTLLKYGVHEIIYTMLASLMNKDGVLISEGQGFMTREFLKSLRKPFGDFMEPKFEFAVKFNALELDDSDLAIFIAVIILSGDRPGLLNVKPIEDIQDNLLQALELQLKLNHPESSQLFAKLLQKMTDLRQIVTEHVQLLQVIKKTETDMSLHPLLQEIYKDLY
# Chain of PPAR delta (Q03181 whole entry): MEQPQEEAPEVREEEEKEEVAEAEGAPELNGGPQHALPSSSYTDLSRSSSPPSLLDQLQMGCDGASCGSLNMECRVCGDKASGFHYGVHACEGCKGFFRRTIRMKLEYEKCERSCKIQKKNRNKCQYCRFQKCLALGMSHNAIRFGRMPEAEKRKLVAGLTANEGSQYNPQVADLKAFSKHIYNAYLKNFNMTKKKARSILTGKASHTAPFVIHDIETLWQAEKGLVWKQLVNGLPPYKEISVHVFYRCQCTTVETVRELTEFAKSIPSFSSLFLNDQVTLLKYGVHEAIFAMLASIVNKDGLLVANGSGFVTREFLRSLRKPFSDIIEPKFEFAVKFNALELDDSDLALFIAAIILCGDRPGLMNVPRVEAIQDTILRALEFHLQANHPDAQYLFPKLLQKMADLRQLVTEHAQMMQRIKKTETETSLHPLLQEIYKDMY
# T2 sequence (O14843 whole entry, species assumed): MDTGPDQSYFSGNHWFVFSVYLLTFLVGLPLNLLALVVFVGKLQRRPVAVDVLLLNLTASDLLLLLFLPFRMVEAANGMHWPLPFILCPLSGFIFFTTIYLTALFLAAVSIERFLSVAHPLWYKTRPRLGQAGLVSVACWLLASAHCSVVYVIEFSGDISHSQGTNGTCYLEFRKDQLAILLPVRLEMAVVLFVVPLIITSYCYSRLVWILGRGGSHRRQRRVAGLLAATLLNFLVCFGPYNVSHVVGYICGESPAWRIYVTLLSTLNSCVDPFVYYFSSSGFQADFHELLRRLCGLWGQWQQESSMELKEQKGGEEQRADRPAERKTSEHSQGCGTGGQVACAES
# T3 sequence (O15552 whole entry, species assumed): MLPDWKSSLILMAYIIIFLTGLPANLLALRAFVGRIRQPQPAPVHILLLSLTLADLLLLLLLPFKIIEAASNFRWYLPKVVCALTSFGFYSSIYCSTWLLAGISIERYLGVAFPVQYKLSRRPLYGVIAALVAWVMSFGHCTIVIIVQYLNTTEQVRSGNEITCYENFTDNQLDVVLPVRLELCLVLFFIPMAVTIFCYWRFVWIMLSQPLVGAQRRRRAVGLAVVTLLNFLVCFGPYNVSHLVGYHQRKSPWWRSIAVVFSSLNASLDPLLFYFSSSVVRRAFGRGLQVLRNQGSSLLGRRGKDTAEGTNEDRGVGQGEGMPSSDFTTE
# Chain of PPAR alpha (Q07869 whole entry, species assumed): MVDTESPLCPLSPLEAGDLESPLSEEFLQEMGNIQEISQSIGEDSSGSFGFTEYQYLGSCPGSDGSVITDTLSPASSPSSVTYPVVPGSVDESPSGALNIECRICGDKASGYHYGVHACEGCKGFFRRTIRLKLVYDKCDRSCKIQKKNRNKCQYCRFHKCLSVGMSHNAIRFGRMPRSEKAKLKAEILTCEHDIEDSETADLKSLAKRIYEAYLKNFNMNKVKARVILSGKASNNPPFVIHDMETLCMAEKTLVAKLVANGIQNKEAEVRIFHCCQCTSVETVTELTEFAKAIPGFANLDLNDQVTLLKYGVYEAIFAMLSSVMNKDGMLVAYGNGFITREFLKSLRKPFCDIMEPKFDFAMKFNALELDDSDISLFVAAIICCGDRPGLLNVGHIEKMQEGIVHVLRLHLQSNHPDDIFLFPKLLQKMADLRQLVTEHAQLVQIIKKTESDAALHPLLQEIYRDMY
# T4 sequence (Q5NUL3 whole entry, species assumed): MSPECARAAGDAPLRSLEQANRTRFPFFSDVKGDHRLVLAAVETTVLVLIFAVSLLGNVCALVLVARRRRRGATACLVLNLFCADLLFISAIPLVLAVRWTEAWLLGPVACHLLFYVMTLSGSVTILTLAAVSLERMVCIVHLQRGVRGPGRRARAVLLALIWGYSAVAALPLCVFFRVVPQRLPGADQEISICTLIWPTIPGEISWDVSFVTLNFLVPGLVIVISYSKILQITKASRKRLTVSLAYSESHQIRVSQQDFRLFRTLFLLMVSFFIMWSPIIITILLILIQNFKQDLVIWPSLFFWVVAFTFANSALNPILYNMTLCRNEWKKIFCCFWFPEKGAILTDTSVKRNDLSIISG
compound,measurement,setting,value
CC#CC(CC(=O)O)c1ccc(OCc2ccc(-c3cccc(OC)c3)cc2)cc1 (racemic) [(±)-AM-8596],EC50,GPR40 [1],1500 ± 170 nM
same,Emax,GPR40 [1],98%
CC[C@H](CC(=O)O)c1cccc(OCc2ccc(-c3cc(OC)ccc3F)c([C@@H]3CCCC3(C)C)c2)c1F [AM-6226],EC50,GPR40 [1],130 ± 30 nM
same,Emax,GPR40 [1],105%
same,"intrinsic activity, fold greater than AMG 837",GPR40 [2]; inositol phosphate assay,~2 fold
same,EC50,"GPR40 [2]; inositol phosphate assay, 1-hour accumulation, read-out: Half-maximal potency",5.7 ± 0.8 nM
same,displacement of 3H-AM-1638,GPR40 [3],displaced ^3H-AM-1638
same,activation of GPR41 (FFAR3),GPR41 (FFAR3),did not activate
same,activation of GPR43 (FFAR2),GPR43 (FFAR2),did not activate
same,EC50,GPR120,~5000 nM
same,activation of PPAR alpha,PPAR alpha,did not activate
same,activation of PPAR delta,PPAR delta,did not activate
same,activation of PPAR gamma,PPAR gamma,did not activate
same,"increase of insulin secretion, fold from that of AMG 837",mouse islets [4],3–4 fold
same,EC50,mouse islets [4]; read-out: EC50 for potentiation of insulin secretion,940 ± 600 nM
same,GSIS response of GPR40 knockout islets,[5],did not respond
same,"IP production efficacy, fold greater than AMG 837",human islet cells,8–10 ×
same,stimulation of insulin secretion compared with AMG 837,human islets,significantly greater
same,"inositol phosphate accumulation, fold increase compared to AMG 837",GLUTag cells,3–4 fold
C/C=C/[C@H](CC(=O)O)c1ccc(OCc2ccc(-c3cc(OC)ccc3F)cc2)cc1 [AM-8182],EC50,GPR40 [1],2400 ± 100 nM
same,Emax,GPR40 [1],106%
"CC#C[C@@H](CC(=O)O)c1ccc(OCc2cccc(-c3ccc(C(F)(F)F)cc3)c2)cc1 [AMG 837, reference compound]",insulin stimulation compared to vehicle control,mouse islets [6]; 3 mM glucose,neither AMG 837 nor AM-1638 stimulated insulin
same,insulin secretion,mouse islets [6]; 16.7 mM glucose,increased both first and second phase insulin secretion
same,GLP-1 release in vitro,[7],could stimulate GLP-1 release
same,Glucose AUC improvement,"HF/STZ mice [8]; OGTT, 100 mg/kg oral, 1 hour before glucose",19%
same,doses at which maximally efficacious,HF/STZ mice [8]; preliminary experiments,≥ 60 mg/kg
same,concentration at 1 h,[9],826 ± 66 nM
same,EC50,mouse GPR40,11 ± 0.05 nM
same,blood glucose levels,"HF/STZ mice [10]; HF/STZ mice, single oral dose, no glucose challenge",stabilized blood glucose levels
same,GLP-1 or GIP levels in vivo,"HF/STZ mice [10]; oral gavage, doses as high as 100 mg/kg",does not substantially increase
same,glucose and insulin levels in healthy volunteers,"humans; phase 1 clinical trials, ref Amgen, data on file",did not lower glucose or increase insulin levels
same,anti-diabetic effects after repeated dosing,Zucker fatty rats,sustained anti-diabetic effects
"O=C(O)CCc1ccc(NCc2cccc(Oc3ccccc3)c2)cc1 [GW-9508, reference compound]",agonist character,GPR40 [2],partial agonists
Cc1cc(OCCCS(C)(=O)=O)cc(C)c1-c1cccc(COc2ccc3c(c2)OC[C@H]3CC(=O)O)c1 [TAK-875],glycemic parameters in type 2 diabetic subjects,humans,improve glycemic parameters
same,incretin levels in type 2 diabetic patients,humans,not associated with a change in incretin levels
"Cc1ccccc1C#Cc1ccc(CCC(=O)O)cc1 [TUG-424, reference compound]",agonist character,GPR40 [2],partial agonists
"N[C@@H](CC(=O)N1CCn2c(nnc2C(F)(F)F)C1)Cc1cc(F)c(F)cc1F [sitagliptin, reference compound]",improvement in pre- and post-challenge glucose levels,[11]; GPR40 knockout mice,maintained in both
same,improvement in pre- and post-challenge glucose levels,[11]; wild type mice,maintained in both
Exendin-4: exerts its effects via GLP-1R [reference compound],GSIS response of GPR40 knockout islets,[5],did respond
